{"source": "patent US20260144808A1", "about": "“TREATMENT OF REPEAT EXPANSION DISEASE” (The Johns Hopkins University, priority 2022, published 2026)", "key": {"C9HRE iMNs": {"test_system": "C9HRE iMNs", "test": "Neuronal survival of C9HRE iMNs under tunicamycin stress, calcein-AM staining", "assay_type": "cell-based, human", "description": "(§1) Motor neuron differentiation of human iPS cells and experimental analyses—The differentiation of iPSCs into motor neurons was performed as previously described (Liu et al., 2018). In brief, iPSCs were seeded onto Matrigel-coated plates and differentiated into neuroepithelial progenitor cells (NEPCs) by culturing 6 days in neural medium (1:1 DMEM/F12:neurobasal medium. GlutaMax, N2 supplement, B27 supplement, and ascorbic acid) containing 3 μM […], 2 μM SB431542, and 2 μM DMH-1. NEPCs were dissociated with dispase (1 U/ml) and split into new plates coated with Matrigel at a ratio of about 1:6. NEPCs were differentiated into motor neuron progenitor cells (MNPCs) using neural medium supplemented with 1 μM CHIR99021, 2 μM SB431542, 2 μM DMH-1, 0.1 μM retinoic acid (RA), and 0.5 μM purmorphamine. After culturing for 6 days, MNPCS were dissociated and cultured in suspension using neural medium containing 0.5 μM RA and 0.1 μM purmorphamine. Six days later, neural spheres were dissociated and plated onto a Matrigel-coated plate. Adherent neural spheres were cultured in neural medium supplemented with 0.5 μM RA, 0.1 μM purmorphamine, and 0.1 μM compound E. After 12 days, mature motor neurons were provided for experiments. The medium was changed every other day during the entire differentiation period.\nFor knockdown experiments on motor neurons, iMNs were infected twice with the shRNA-expressing lentiviruses, on day 10 and day 12 at the final differentiation stage, and the cells were used on day 15 to allow for efficient DAXX knockdown. Mature iMNs were stressed with tunicamycin (5 μg/ml) in the presence of Na-Phen (10 μM) or 5-aza-2 ([…]) for the indicated times, and neuronal survival at each time point was measured by calcein-AM staining. In brief, iMNs were stained with 3 μM calcein-AM (Invitrogen, C1430), and the fluorescence of surviving iMNs was read using a plate reader (Synergy H1 Hybrid) with excitation/emission at 485 nm/535 nm. Optical fields with calcein-positive iMNs were randomly selected and images captured using a fluorescence microscope (Nikon Eclipse TS100)."}, "C9orf72 V2 transcripts": {"test_system": "C9orf72 V2 transcripts", "test": "RT-qPCR analysis of C9V2 mRNA levels in human RPE1 cells after drug treatment", "assay_type": "cell-based", "details": "24 h; for levels of C9orf72 V2 transcripts: vs DMSO, FIG. 13J; for C9V2 mRNA, as measured by RT-qPCR: increasing concentrations of TM or TG, FIG. 13G", "description": "(§2) Cell culture, drug treatment, lentiviral shRNA knockdown, and live-cell imaging—HEK293 cells and mouse embryonic fibroblast (MEF) cells were cultured in DMEM containing 10% FBS. Human retinal pigment epithelial 1 (RPE1) cells were cultured in DMEM/F12 containing 10% FBS and 0.01 mg/ml hygromycin B. Human B lymphocytes were cultured in RPMI 1640 medium containing 15% FBS. Human iPSCs were obtained from the NINDS Human Cell and Data Repository and maintained in StemFlex medium (Gibco, A3349401), with medium exchange every other day. All cell lines were checked regularly for mycoplasma contamination. To induce cell stress, RPE1 cells were treated with thapsigargin (30 nM) or tunicamycin (5 μg/ml) for 24 h, and B lymphocytes were treated with thapsigargin (40 nM) or tunicamycin (1 μg/ml) for 24 h. To express PR82, RPE1 cells were transfected with the pLenti-PR82 plasmid and cultured for 48 h.\n(§3) Quantitative PCR— Total RNAs were extracted with an RNeasy Plus mini kit (Qiagen, 74136), and cDNAs were synthesized using QuantiTect reverse transcription reagents (Qiagen, 205313). qPCR reactions were carried out on a Bio-Rad thermal cycler using PowerUp SYBR Green Master Mix (ThermoFisher Scientific). The primer sets for C9orf72 transcripts V1, V2, and V3 were described previously (Gendron et al., 2017, incorporated herein by reference). The expression of C9orf72 pre-mRNA was measured with a pair of primers targeted to the junction region between exon 2 and intron 3 (SEQ ID NO: 11 and 12). The mRNA expression levels were analyzed by the ΔΔCt method and normalized against housekeeping genes. In the promoter analysis, the EGFP transcription level was normalized to the GAPDH transcript and the plasmid-encoded ampicillin resistance (AmpR) transcript to exclude any bias induced by differential transfection efficiency."}, "[1]": {"test_system": "mutant SOD1 mouse model of ALS", "details": "Ryu et al., 2005; cited from earlier work"}, "C9orf72 V2 promoter": {"test_system": "C9orf72 V2 promoter", "test": "ChIP-qPCR of H3K9me3 and H3K27ac at the C9orf72 V2 promoter in human RPE1 cells", "assay_type": "cell-based", "details": "24 h, vs DMSO, FIG. 13I", "description": "as §2\nChromatin immunoprecipitation qPCR—ChIP-qPCR analysis of RPE1 cells, B lymphocytes, and iPSC-differentiated motor neurons was performed by using a CHIP assay kit (Millipore Sigma, 17-295). In brief, protein complexes were crosslinked with 1% formaldehyde at 37° C. for 10 min and quenched with glycine at a final concentration of 125 mM at 37° C. for 5 min. […]"}, "C9orf72 protein and mRNA": {"test_system": "C9orf72 protein and mRNA", "test": "Stress-induced C9orf72 expression in control and C9HRE B lymphocytes (immunoblotting, RT-qPCR)", "assay_type": "cell-based, human", "details": "tunicamycin 1 μg/ml or thapsigargin 40 nM, 24 h; for dynamic regulation of C9orf72 expression: B lymphocytes from C9HRE patients; for stress-responsive induction of C9orf72 expression at both the protein and mRNA levels: normal B lymphocytes", "description": "as §2, §3\nImmunoblotting—Cultured cells were washed twice with PBS and lysed in cold RIPA buffer containing 50 mM Tris (pH 7.5), 0.5% SDS, 150 mM NaCl, 0.5% NP40, 20 mM EDTA, 1 mM PMSF, and Protease Inhibitor Cocktail (1:200, Millipore Sigma, P8340).\n(§4) Protein concentrations were measured by the bicinchoninic acid assay (ThermoFisher, 23225). […] Western blot images were captured by an Odyssey scanner (LI-COR) and analyzed with Image Studio (version 5.2.5). […]"}, "C9V2 mRNA": {"test_system": "C9V2 mRNA", "test": "RT-qPCR analysis of C9V2 mRNA in HEK293 cells after stressor treatment", "assay_type": "cell-based, human", "details": "increasing concentrations of TM or TG, 24 h, FIG. 13F", "description": "as §2, with “To express PR82, RPE1 cells were transfected with the pLenti-PR82 plasmid and cultured for 48 h.” left out\n(§5) Quantitative PCR— Total RNAs were extracted with an RNeasy Plus mini kit (Qiagen, 74136), and cDNAs were synthesized using QuantiTect reverse transcription reagents (Qiagen, 205313). qPCR reactions were carried out on a Bio-Rad thermal cycler using PowerUp SYBR Green Master Mix (ThermoFisher Scientific). […] The expression of C9orf72 pre-mRNA was measured with a pair of primers targeted to the junction region between exon 2 and intron 3 (SEQ ID NO: 11 and 12). The mRNA expression levels were analyzed by the ΔΔCt method and normalized against housekeeping genes. […]"}, "[2]": {"test_system": "C9orf72 protein and V2 mRNA", "test": "Stress-induced C9orf72 expression in control and C9HRE iMNs (immunoblotting, RT-qPCR)", "assay_type": "cell-based, human", "details": "tunicamycin 5 μg/ml, 24 h", "description": "as §1, §5, §4"}, "DAXX": {"target": "DAXX (Homo sapiens, UniProt Q9UER7 Q9UER7:1-740)", "sequence (Q9UER7 whole entry, one chain of several)": "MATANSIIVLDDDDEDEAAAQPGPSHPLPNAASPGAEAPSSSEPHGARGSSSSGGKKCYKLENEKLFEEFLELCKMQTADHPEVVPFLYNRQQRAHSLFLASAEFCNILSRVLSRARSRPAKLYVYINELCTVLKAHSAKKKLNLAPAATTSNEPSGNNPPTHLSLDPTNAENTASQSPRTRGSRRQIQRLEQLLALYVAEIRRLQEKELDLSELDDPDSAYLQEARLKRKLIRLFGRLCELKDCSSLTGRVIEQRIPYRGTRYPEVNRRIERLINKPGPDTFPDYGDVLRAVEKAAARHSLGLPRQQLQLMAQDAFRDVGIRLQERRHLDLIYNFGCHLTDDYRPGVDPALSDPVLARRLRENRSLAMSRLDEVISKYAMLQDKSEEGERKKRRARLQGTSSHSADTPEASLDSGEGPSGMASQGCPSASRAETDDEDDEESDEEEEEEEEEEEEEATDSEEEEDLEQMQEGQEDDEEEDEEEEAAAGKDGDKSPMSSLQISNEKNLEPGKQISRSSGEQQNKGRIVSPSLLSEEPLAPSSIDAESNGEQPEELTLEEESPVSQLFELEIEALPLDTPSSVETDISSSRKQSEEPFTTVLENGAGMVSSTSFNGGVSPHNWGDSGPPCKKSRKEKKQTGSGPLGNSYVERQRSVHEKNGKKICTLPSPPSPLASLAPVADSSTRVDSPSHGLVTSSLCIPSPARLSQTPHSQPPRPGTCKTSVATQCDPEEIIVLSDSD", "test": "EMSA; significantly preferential over random control; 50 nM probe, 10 mM Tris pH 7.5, 1 mM EDTA, 0.1 mM DTT, BSA, 5% glycerol, RT 30 min", "details": "tags: Flag-DAXX (Flag-Daxx/pRK5, Addgene 27974), anti-Flag M2 purified from HEK293 per Methods; label: 5' Alexa Fluor 488 on one strand", "description": "Several assays were used to validate the interaction between DAXX and the G4C2 repeat dsDNA. […] Next, experiments were conducted to test whether DAXX protein and G4C2 repeat dsDNA interact directly. In these experiments, human DAXX protein (FIG. 8D) was purified and an electrophoresis mobility shift assay (EMSA) was performed using 5′ AlexaFluor 488-labeled (G4C2)₁₀ dsDNA or a length-matched random sequence control. […] In addition, experiments were performed to establish the association of endogenous DAXX with the expanded C9orf72 (G4C2)n DNA repeats in situ. In these experiments, DNA fluorescent in situ hybridization (FISH) was used to immunostain DAXX on multiple lines of ALS and/or FTD patient lymphocytes carrying C9orf72 HRE mutations. A co-localization between the DAXX immunostaining and FISH staining at the C9HRE locus was indicated by a well-demarcated punctum present only in the nuclei of patient cells and not in the control cells (FIG. 1A)."}}}
{"molecule": "Nc1ncn([C@H]2C[C@H](O)[C@@H](CO)O2)c(=O)n1", "note": "[Compound 5-aza-2, 5-aza-2′-deoxycytidine]", "values": [{"measurement": "survival of C9HRE iMNs exposed to tunicamycin", "setting": "C9HRE iMNs; TM 5 μg/ml with 5-aza-2 2 μM, vs DMSO, FIG. 7C, D", "value": "significant increase"}, {"measurement": "levels of C9orf72 V2 transcripts", "setting": "C9orf72 V2 transcripts; 5-aza-2 2 μM", "value": "significantly upregulated"}]}
{"molecule": "O=C([O-])CCCc1ccccc1.[Na+]", "note": "[Na-Phen, sodium phenylbutyrate]", "values": [{"measurement": "protection of C9HRE iMNs from tunicamycin-induced stress", "setting": "C9HRE iMNs; TM 5 μg/ml with Na-Phen 10 μM, vs DMSO, FIG. 7C, D", "value": "robust protection"}, {"measurement": "levels of C9orf72 V2 transcripts", "setting": "C9orf72 V2 transcripts; Na-Phen 10 μM", "value": "significantly upregulated"}, {"measurement": "survival in a mutant SOD1 mouse model of ALS", "setting": "[1]", "value": "prolongs the survival"}]}
{"molecule": "C/C=C(/C)C(=O)O[C@H]1C(C)=C2[C@H]([C@@H]1OC(=O)CCCCCCC)[C@@](C)(OC(C)=O)C[C@H](OC(=O)CCC)[C@@]1(O)[C@H]2OC(=O)[C@@]1(C)O", "note": "[thapsigargin]", "values": [{"measurement": "levels of the repressive marker H3K9me3 at the C9orf72 V2 promoter", "setting": "C9orf72 V2 promoter; TG 30 nM", "value": "decreased"}, {"measurement": "C9V2 mRNA, as measured by RT-qPCR", "setting": "C9orf72 V2 transcripts", "value": "stress-dependent induction"}, {"measurement": "dynamic regulation of C9orf72 expression", "setting": "C9orf72 protein and mRNA", "value": "lost"}, {"measurement": "stress-responsive induction of C9orf72 expression at both the protein and mRNA levels", "setting": "C9orf72 protein and mRNA", "value": "observed"}, {"measurement": "C9V2 mRNA, as measured by RT-qPCR", "setting": "C9V2 mRNA", "value": "stress-dependent induction"}]}
{"molecule": "tunicamycin", "values": [{"measurement": "levels of the active marker H3K27ac at the C9orf72 V2 promoter", "setting": "C9orf72 V2 promoter; TM 5 μg/ml", "value": "elevated"}, {"measurement": "tunicamycin-induced upregulation of C9orf72 expression", "setting": "[2]; iMNs derived from C9HRE patients, FIG. 5A-C", "value": "absent"}, {"measurement": "C9orf72 protein levels", "setting": "[2]; iMNs from healthy individuals, vs DMSO, FIG. 5A-B", "value": "significantly increased"}, {"measurement": "C9orf72 V2 mRNA levels", "setting": "[2]; iMNs from healthy individuals, vs DMSO, FIG. 5C", "value": "significantly increased"}, {"measurement": "loss of C9HRE iMNs", "setting": "C9HRE iMNs; tunicamycin 5 μg/ml alone, FIG. 7A, B", "value": "time-dependent loss"}, {"measurement": "C9V2 mRNA, as measured by RT-qPCR", "setting": "C9orf72 V2 transcripts", "value": "stress-dependent induction"}, {"measurement": "dynamic regulation of C9orf72 expression", "setting": "C9orf72 protein and mRNA", "value": "lost"}, {"measurement": "stress-responsive induction of C9orf72 expression at both the protein and mRNA levels", "setting": "C9orf72 protein and mRNA", "value": "observed"}, {"measurement": "C9V2 mRNA, as measured by RT-qPCR", "setting": "C9V2 mRNA", "value": "stress-dependent induction"}]}
{"molecule": "(G4C2)10 dsDNA (dsDNA) DNA 1: GGGGCCGGGGCCGGGGCCGGGGCCGGGGCCGGGGCCGGGGCCGGGGCCGGGGCCGGGGCC DNA 2: GGCCCCGGCCCCGGCCCCGGCCCCGGCCCCGGCCCCGGCCCCGGCCCCGGCCCCGGCCCC", "values": [{"measurement": "binding result", "setting": "DAXX", "value": "binds"}]}
